Measurements as given in patent US20210255193A1, “LYSINE REACTIVE PROBES AND USES THEREOF” (The Scripps Research Institute, priority 2017, published 2021).

Assays:
Experiment in all cases: competitive isoTOP-ABPP
[1] = molecular target: T1, TPD52L2 Tumor protein D54 (Homo sapiens, UniProt O43399); type: binding; design: key to isoTOP-ABPP reactivity ratio at lysine O43399_K90: R = MS1 peak area ratio, DMSO (heavy) / compound-treated (light); conditions: 50 uM, in vitro; for isoTOP-ABPP reactivity ratio at lysine O43399_K90: 231 sol; for isoTOP-ABPP ratio (R) at liganded lysine O43399_K90: sol, 231
T1 construct: isoTOP-ABPP experiments performed in cell lysates (in vitro); endogenous in cells; host or cells: MDA-MB-231 soluble lysate
Method: (§1) In vitro covalent fragment treatment for isoTOP-ABPP. All compounds were made up as solutions in DMSO (100×) and were used at a final concentration of 50 μM for activated esters and 100 μM for guanidinylating agents. For each profiling sample, 0.5 ml of lysate was treated with 5 μl of the 100× compound stock solution or 5 μl of DMSO. Samples were treated with activated esters for
(§2) STP-alkyne labeling and click chemistry. For concentration-dependent reactivity measurements by isoTOP-ABPP, 0.5 ml proteome aliquots were treated at ambient temperature with 1 mM STP-alkyne 1 (5 μl of 100 mM stock in DMSO) and 0.1 mM STP alkyne 1 (5 μl of 10 mM stock in DMSO), respectively. For competitive isoTOP-ABPP, after in vitro fragment treatment (detailed above), the samples were labeled for 1 h at ambient temperature with 0.1 mM STP-alkyne 1 (5 μl of 10 mM stock in DMSO). Samples were conjugated by copper-mediated azide-alkyne cycloaddition (CuAAC) to either the light (1 mM STP-alkyne or fragment treated) or heavy (0.1 mM STP-alkyne or DMSO treated) TEV tags (10 μl of 5 mM stocks in DMSO, final concentration=100 μM) using tris(2-carboxyethyl)phosphine hydrochloride
(§3) R value calculation and processing. The ratios of light and heavy MS1 peaks for each unique peptide were quantified with a CIMAGE software using default parameters (3 MS1 acquisitions per peak and signal to noise threshold set to 2.5). For reactivity measurements by isoTOP-ABPP, the R value was calculated from the ratio of MS1 peak areas, comparing the 1 mM STP alkyne sample (light TEV tag) with the 0.1 mM STP alkyne sample (heavy TEV tag). For competitive isoTOP-ABPP, the R value was calculated from the ratio of MS1 peak areas, comparing the DMSO treated sample (heavy TEV tag) with the compound treated sample (light TEV tag). […] Ratios for unique peptide entries are calculated for each experiment; overlapping peptides with the same modified lysine (for example, different charge states, MudPIT chromatographic steps or tryptic termini) are grouped together and the median ratio is reported as the final ratio (R). The peptide ratios reported by CIMAGE were further filtered to ensure the removal or correction of low-quality ratios in each individual data set. The quality filters applied were the following: removal of half tryptic peptides; for ratios with high standard deviations from the median (90% of the median or above) the lowest ratio was taken instead of the median; removal of peptides with R=20 and only a single MS2 event triggered during the elution of the parent ion; manual annotation of all the peptides with ratios of 20, removing any peptides with low quality elution profiles that remained after the previous curation steps (only done for competitive isoTOP-ABPP).
(§4) Cross-data processing for fragment screening. For compound treated samples, biological replicates of the same condition were averaged, if the standard deviation was below 60% of the mean; otherwise, for lysines with at least one R value <4 for a particular compound, the lowest value of the ratio set was taken. For lysines, where all R values for a particular compound were ≥4, the average was reported. For peptides containing several possible modified lysines, the lysine with the highest number of quantification events was used for analysis and the remaining, redundant peptides were reported as alternative modification sites. Peptides included in the aggregate dataset (those used for further bioinformatics and statistical analyses) were required to have been quantified in 2 experiments for competitive isoTOP-ABPP. Lysines were categorized as liganded, if they had at least one ratio R≥4 (hit fragments). For liganded lysines with R=20 for all liganding events, lysines were required to have been quantified with R=20 in two separate experiments and were further required to have been quantified with R<20 in one additional experiment.

[2] = molecular target: T2, ABCE1 ATP-binding cassette sub-family E member 1 (Homo sapiens, UniProt P61221); conditions: 50 uM, in vitro; for isoTOP-ABPP reactivity ratio at lysine P61221_K191 / isoTOP-ABPP reactivity ratio at lysine P61221_K478: 231 sol; for isoTOP-ABPP ratio (R) at liganded lysine P61221_K191 / isoTOP-ABPP ratio (R) at liganded lysine P61221_K478: sol, 231
T2 construct: isoTOP-ABPP experiments performed in cell lysates (in vitro); endogenous in cells; host or cells: soluble proteome of human cancer cell lines (MDA-MB-231, Ramos, Jurkat)
Method: as §1, §2, §3, §4

[3] = molecular target: T3, NUDT2 Bis(5-nucleosyl)-tetraphosphatase (Homo sapiens, UniProt P50583); type: binding; design: key to isoTOP-ABPP reactivity ratio at lysine P50583_K89: R = MS1 peak area ratio, DMSO (heavy) / compound-treated (light); conditions: 50 uM, in vitro; for isoTOP-ABPP reactivity ratio at lysine P50583_K89: 231 sol; for isoTOP-ABPP ratio (R) at liganded lysine P50583_K89: sol, 231
T3 construct: isoTOP-ABPP experiments performed in cell lysates (in vitro); endogenous in cells
Method: as §1, §2, §3, §4

[4] = molecular target: T4, PFKP 6-phosphofructokinase type C (Homo sapiens, UniProt Q01813); type: binding; design: key to isoTOP-ABPP reactivity ratio at lysine Q01813_K688: R = MS1 peak area ratio, DMSO (heavy) / compound-treated (light); conditions: 50 uM, in vitro; for isoTOP-ABPP reactivity ratio at lysine Q01813_K688: 231 sol; for isoTOP-ABPP ratio (R) at liganded lysine Q01813_K688: sol, 231
T4 construct: isoTOP-ABPP experiments performed in cell lysates (in vitro); endogenous in cells
T4 sequence (Q01813 1-784): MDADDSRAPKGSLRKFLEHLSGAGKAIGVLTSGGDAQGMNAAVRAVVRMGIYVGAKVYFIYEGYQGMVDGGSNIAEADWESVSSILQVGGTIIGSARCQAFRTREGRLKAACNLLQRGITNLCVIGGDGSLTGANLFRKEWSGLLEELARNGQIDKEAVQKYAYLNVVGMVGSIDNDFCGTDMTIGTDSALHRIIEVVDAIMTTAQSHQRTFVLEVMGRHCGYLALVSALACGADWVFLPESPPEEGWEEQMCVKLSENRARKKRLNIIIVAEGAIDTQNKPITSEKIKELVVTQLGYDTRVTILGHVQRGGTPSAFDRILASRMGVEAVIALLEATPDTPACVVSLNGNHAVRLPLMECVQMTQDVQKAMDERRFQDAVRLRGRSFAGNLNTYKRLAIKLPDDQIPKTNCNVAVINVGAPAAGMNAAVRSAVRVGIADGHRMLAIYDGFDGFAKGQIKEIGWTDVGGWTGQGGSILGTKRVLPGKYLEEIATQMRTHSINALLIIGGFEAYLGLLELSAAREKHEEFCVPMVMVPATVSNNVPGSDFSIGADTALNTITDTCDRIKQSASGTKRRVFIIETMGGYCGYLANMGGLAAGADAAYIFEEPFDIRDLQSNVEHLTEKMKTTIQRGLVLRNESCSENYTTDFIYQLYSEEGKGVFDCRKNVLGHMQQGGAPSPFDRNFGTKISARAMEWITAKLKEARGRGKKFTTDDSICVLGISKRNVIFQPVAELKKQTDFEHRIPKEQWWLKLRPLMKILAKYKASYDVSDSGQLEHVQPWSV
Method: as §1, §2, §3, §4

T1 sequence (O43399 whole entry): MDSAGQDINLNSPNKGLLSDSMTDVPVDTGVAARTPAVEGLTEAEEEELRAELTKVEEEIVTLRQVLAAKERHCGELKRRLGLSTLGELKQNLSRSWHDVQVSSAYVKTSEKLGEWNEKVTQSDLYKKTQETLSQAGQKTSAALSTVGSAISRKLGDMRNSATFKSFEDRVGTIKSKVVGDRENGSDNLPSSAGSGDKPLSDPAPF
T3 sequence (P50583 whole entry): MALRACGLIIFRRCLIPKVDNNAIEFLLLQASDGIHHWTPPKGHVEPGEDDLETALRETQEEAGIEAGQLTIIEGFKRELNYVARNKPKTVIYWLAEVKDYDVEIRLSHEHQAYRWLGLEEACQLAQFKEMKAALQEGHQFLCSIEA

Compound | isoTOP-ABPP reactivity ratio at lysine O43399_K90 [1] | isoTOP-ABPP reactivity ratio at lysine P61221_K191 [2] | isoTOP-ABPP reactivity ratio at lysine P61221_K478 [2] | isoTOP-ABPP reactivity ratio at lysine P50583_K89 [3] | isoTOP-ABPP reactivity ratio at lysine Q01813_K688 [4] | isoTOP-ABPP ratio (R) at liganded lysine O43399_K90 [1] | isoTOP-ABPP ratio (R) at liganded lysine P61221_K191 [2] | isoTOP-ABPP ratio (R) at liganded lysine P61221_K478 [2] | isoTOP-ABPP ratio (R) at liganded lysine P50583_K89 [3] | isoTOP-ABPP ratio (R) at liganded lysine Q01813_K688 [4]
O=C(CCc1cn(-c2ccccc2)nc1-c1ccccc1)Oc1ccc([N+](=O)[O-])cc1[N+](=O)[O-] [fragment 29, 2,4-Dinitrophenyl 3-(1,3-diphenyl-1H-pyrazol-4-yl)propanoate] | 3.1 | 1.0 | 1.2 | 1.0 | 12.8 |  |  |  |  | 
O=C(Oc1ccc([N+](=O)[O-])cc1[N+](=O)[O-])C(c1ccccc1)c1ccccc1 [fragment 30, 2,4-Dinitrophenyl 2,2-diphenylacetate] | 5.5 | 1.1 | 1.1 | 1.1 | 20.0 |  |  |  |  | 
O=C(Oc1ccc([N+](=O)[O-])cc1[N+](=O)[O-])c1cc(C(F)(F)F)cc(C(F)(F)F)c1 [fragment 31, 2,4-Dinitrophenyl 3,5-bis(trifluoromethyl)benzoate] | 3.3 | 1.4 | 1.1 | 0.8 | 2.3 |  |  |  |  | 
Cn1cc(CC(=O)Oc2ccc([N+](=O)[O-])cc2[N+](=O)[O-])c2ccccc21 [fragment 32, 2,4-Dinitrophenyl 2-(1-methyl-1H-indol-3-yl)acetate] | 2.7 | 1.3 | 1.2 | 3.7 | 12.6 |  |  |  |  | 
COc1cc(CCC(=O)Oc2ccc([N+](=O)[O-])cc2[N+](=O)[O-])cc(OC)c1OC [fragment 33, 2,4-Dinitrophenyl 3-(3,4,5-trimethoxyphenyl)propanoate] | 1.3 | 1.1 | 1.2 | 1.9 | 20.0 |  |  |  |  | 
O=C(Oc1ccc([N+](=O)[O-])cc1[N+](=O)[O-])C1CCN(C(=O)OCc2ccccc2)CC1 [fragment 34, 1-Benzyl 4-(2,4-dinitrophenyl) piperidine-1,4-dicarboxylate] |  |  |  |  |  | 1.8 | 1.0 | 1.2 | 1.0 | 1.9
O=C(Oc1ccc([N+](=O)[O-])cc1[N+](=O)[O-])c1ccc2ccccc2n1 [fragment 35, 2,4-Dinitrophenyl quinoline-2-carboxylate] |  |  |  |  |  | 1.3 | 1.1 | 1.1 | 1.6 | 3.3
O=C(CCc1coc2cc(F)ccc2c1=O)Oc1ccc([N+](=O)[O-])cc1[N+](=O)[O-] [fragment 36, 2,4-Dinitrophenyl 3-(7-fluoro-4-oxo-4H-chromen-3-yl)propanoate] |  |  |  |  |  | 1.3 | 1.0 | 1.1 | 0.9 | 20.0
O=C(Oc1ccc([N+](=O)[O-])cc1[N+](=O)[O-])c1ccc(-c2ccccc2)cc1 [fragment 37, 2,4-Dinitrophenyl [1,1′-biphenyl]-4-carboxylate] |  |  |  |  |  | 1.6 | 0.9 | 1.0 | 1.4 | 1.0
O=C(CC12CC3CC(CC(C3)C1)C2)Oc1ccc([N+](=O)[O-])cc1[N+](=O)[O-] [fragment 38, 2,4-Dinitrophenyl 2-(adamantan-1-yl)acetate] |  |  |  |  |  | 2.9 |  | 0.9 | 0.9 | 4.1
O=C(Oc1ccc([N+](=O)[O-])cc1[N+](=O)[O-])c1ccc(Oc2ccccc2)cc1 [fragment 39, 2,4-Dinitrophenyl 4-phenoxybenzoate] |  |  |  |  |  | 1.3 | 0.8 | 1.0 | 2.4 | 1.0
O=C(Oc1ccc([N+](=O)[O-])cc1[N+](=O)[O-])c1ccccc1Nc1cccc(C(F)(F)F)c1 [fragment 40, 2,4-Dinitrophenyl 2-((3-(trifluoromethyl)phenyl)amino)benzoate] |  |  |  |  |  | 1.2 | 0.9 | 1.0 | 0.9 | 1.0
CC(C)(C)OC(=O)NCCCC(=O)Oc1ccc([N+](=O)[O-])cc1[N+](=O)[O-] [fragment 41, 2,4-Dinitrophenyl 4-((tert-butoxycarbonyl)amino)butanoate] |  |  |  |  |  | 1.3 | 1.2 | 1.3 | 1.0 | 4.9
